# Assay results reported in ChEMBL document CHEMBL5344475, “Indole-containing pharmaceuticals: targets, pharmacological activities, and SAR studies” (RSC Med Chem, 2024).
# Tests used:
# [1] = molecular target: 5-hydroxytryptamine receptor 1B (Homo sapiens, UniProt P28222); test: Binding affinity to 5-HT1B receptor (unknown origin) assessed as inhibition constant
# [2] = Plasma clearance in iv dosed C57BL/6J mouse; type: ADME, organism-based
# [3] = Cmax in human plasma; type: ADME, cell-free
# [4] = Terminal half life in human; type: ADME; conditions: read-out: beta t1/2 (converted)
# [5] = Apparent oral clearance in human at 1 mg, po by LC-MS/MS analysis; type: ADME, organism-based; conditions: in vivo
# [6] = Terminal half life in human at 10 mg/kg, iv; conditions: in vivo, read-out: beta t1/2 (converted)
# [7] = Binding affinity to MT1 receptor (unknown origin) assessed as inhibition constant; parameters: species or system Homo sapiens
# [8] = molecular target: Prostaglandin G/H synthase 1 (Homo sapiens, UniProt P23219); test: Inhibition of COX1 (unknown origin)
# Prostaglandin G/H synthase 1, sequence (P23219 whole entry): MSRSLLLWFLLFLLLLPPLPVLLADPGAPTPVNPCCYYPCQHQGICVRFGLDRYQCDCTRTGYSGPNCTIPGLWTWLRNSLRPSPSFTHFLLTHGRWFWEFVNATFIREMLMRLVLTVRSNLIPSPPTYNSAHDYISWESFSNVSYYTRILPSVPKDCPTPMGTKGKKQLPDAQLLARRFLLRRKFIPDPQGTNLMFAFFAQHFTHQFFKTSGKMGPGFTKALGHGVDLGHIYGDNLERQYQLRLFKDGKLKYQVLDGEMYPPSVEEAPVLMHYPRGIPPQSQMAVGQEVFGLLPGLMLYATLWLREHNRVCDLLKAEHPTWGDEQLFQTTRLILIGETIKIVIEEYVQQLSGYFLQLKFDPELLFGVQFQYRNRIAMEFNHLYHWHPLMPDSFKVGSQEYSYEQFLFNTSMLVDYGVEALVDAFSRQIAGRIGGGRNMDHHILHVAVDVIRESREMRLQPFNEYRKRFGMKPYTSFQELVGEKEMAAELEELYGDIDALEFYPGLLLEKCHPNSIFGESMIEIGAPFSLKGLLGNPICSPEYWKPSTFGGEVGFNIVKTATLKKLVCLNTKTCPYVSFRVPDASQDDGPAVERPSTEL
# [9] = molecular target: T1, Prostaglandin G/H synthase 2 (Homo sapiens, UniProt P35354); test: Inhibition of COX-2 (unknown origin) using arachidonic acid as substrate preincubated for 15 mins followed by substrate addition by colorimetric assay
# T1 sequence (P35354 whole entry): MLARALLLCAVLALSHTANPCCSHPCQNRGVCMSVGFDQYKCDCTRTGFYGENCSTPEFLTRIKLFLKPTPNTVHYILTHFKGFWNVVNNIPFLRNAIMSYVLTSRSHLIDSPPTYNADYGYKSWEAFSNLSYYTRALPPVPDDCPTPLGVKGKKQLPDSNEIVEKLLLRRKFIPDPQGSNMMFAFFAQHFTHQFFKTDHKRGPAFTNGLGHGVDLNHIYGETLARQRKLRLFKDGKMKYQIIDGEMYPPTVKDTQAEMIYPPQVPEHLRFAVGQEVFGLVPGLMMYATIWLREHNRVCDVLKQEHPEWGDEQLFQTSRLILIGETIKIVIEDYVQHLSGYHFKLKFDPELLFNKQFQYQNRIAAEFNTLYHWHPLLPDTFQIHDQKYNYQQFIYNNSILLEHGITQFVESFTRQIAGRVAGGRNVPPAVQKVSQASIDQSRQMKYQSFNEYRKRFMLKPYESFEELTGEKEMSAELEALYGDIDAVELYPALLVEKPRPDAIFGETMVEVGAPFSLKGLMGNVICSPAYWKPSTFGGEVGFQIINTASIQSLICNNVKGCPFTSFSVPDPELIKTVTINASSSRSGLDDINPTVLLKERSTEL
# [10] = Half life of compound in PBS buffer; type: physicochemical
# [11] = Apparent oral clearance in human
# [12] = Volume of distribution in Wistar rat; type: ADME; conditions: in vivo
# [13] = Plasma clearance in iv dosed human
# [14] = Elimination half life in human; type: ADME; conditions: read-out: beta t1/2 (converted)
# [15] = Volume of distribution at steady state in iv dosed human; conditions: in vivo, read-out: Vdss
# [16] = Binding affinity to 5-HT3R (unknown origin) assessed as inhibition constant; parameters: species or system Homo sapiens
# [17] = Oral bioavailability in human; type: ADME, organism-based; conditions: in vivo
# [18] = AUC in Sprague-Dawley rat at 10 mg/kg, iv by LC-MS/MS analysis; type: ADME, organism-based; parameters: dose 10 mg/kg, route iv; conditions: in vivo
# [19] = Tmax in human plasma; type: ADME, cell-free
# [20] = AUC in ICR mouse; type: ADME; conditions: in vivo
# [21] = Elimination half life in human at 7.5 to 100 mg; type: ADME; conditions: dose 7.5-100 mg, read-out: beta t1/2 (converted)
# [22] = Oral bioavailability in mouse; type: ADME, organism-based; conditions: in vivo
# D(1A) dopamine receptor = D(1A) dopamine receptor (Homo sapiens, UniProt P21728); test: Binding affinity to dopamine D1 receptor (unknown origin) assessed as inhibition constant
# D(1A) dopamine receptor, sequence (P21728 whole entry): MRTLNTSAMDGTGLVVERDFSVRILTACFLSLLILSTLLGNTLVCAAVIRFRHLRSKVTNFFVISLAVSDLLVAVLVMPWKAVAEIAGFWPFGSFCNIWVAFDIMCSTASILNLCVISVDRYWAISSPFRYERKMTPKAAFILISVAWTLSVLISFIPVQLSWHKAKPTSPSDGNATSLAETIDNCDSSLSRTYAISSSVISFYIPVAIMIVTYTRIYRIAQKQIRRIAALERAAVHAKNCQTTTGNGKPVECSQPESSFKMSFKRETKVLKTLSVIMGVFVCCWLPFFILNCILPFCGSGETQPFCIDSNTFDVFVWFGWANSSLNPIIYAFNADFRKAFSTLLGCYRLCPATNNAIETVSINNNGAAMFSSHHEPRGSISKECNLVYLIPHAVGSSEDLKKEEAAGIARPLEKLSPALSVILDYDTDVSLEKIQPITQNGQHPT
# [23] = Apparent oral renal clearance in human; type: ADME; conditions: read-out: CL(app)
# Dopamine receptor = test: Inhibition of dopamine receptor (unknown origin); type: protein assay, Homo sapiens
# [24] = Half life in human; type: ADME
# [25] = Tmax in human; type: ADME
# Half life in human = conditions: in vivo
# [26] = molecular target: Beta-2 adrenergic receptor (Homo sapiens, UniProt P07550); test: Binding affinity to human beta 2 adrenergic receptor assessed as inhibition constant
# Beta-2 adrenergic receptor, sequence (P07550 whole entry): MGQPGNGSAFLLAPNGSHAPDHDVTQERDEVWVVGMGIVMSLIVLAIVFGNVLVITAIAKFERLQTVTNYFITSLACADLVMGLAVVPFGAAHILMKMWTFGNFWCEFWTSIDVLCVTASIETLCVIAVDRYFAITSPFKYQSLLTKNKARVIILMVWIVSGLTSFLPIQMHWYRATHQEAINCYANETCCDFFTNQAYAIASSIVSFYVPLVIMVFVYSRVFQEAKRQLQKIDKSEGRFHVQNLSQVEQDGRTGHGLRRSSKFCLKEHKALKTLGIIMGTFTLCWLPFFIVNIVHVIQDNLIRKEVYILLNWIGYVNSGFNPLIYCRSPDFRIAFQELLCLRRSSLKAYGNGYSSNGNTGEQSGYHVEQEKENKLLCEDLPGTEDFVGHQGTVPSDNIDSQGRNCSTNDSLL
# [27] = molecular target: 5-hydroxytryptamine receptor 2B (Homo sapiens, UniProt P41595); test: Binding affinity to 5-HT2B receptor (unknown origin) assessed as inhibition constant
# 5-hydroxytryptamine receptor 2B, sequence (P41595 whole entry): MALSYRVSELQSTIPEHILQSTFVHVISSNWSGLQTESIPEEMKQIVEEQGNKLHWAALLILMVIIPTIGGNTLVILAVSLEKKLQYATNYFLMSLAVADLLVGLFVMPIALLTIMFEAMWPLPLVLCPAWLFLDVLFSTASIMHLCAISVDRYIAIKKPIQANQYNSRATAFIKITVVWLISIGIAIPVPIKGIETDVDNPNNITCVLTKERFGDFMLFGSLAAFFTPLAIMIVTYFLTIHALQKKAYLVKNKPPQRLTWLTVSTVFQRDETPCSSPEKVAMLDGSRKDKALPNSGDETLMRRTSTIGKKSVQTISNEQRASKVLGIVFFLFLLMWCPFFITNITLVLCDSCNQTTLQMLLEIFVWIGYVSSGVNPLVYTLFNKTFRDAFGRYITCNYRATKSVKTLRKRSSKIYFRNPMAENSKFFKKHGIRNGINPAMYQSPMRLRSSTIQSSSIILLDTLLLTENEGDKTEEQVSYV
# [28] = Terminal half life in iv dosed mouse; type: ADME, organism-based; conditions: in vivo, read-out: beta t1/2 (converted)
# [29] = Volume of distribution in human; type: ADME
# [30] = Elimination half life in rat; type: ADME; conditions: in vivo, read-out: beta t1/2 (converted)
# [31] = Volume of distribution in human at 2.5 mg; type: ADME
# [32] = Volume of distribution in human at 80 to 100 mg; type: ADME; conditions: dose 80-100 mg
# [33] = Half life in human plasma; type: ADME, cell-free
# [34] = Apparent volume of distribution in Sprague-Dawley rat at 1 mg/kg, iv; type: ADME, organism-based; conditions: in vivo
# [35] = Effective half life in human; conditions: in vivo, read-out: t1/2eff (converted)
# [36] = Cmax in human at 4 mg, po; type: ADME; parameters: dose 4 mg, route po; conditions: in vivo
# [37] = AUC (0 to 24 hrs) in human at 40 mg, po by LC-MS/MS analysis; conditions: in vivo
# [38] = Blood clearance in Wistar rat at 0.3 mg/kg, iv; type: ADME, organism-based
# [39] = Volume of distribution at steady state in human; conditions: in vivo, read-out: Vdss
# [40] = Plasma clearance in iv dosed human; conditions: in vivo
# [41] = Initial half life in iv dosed mouse; conditions: in vivo, read-out: beta t1/2
# [42] = Apparent oral clearance in human at 100 mg, po by LC-MS/MS analysis; type: ADME, organism-based; conditions: in vivo
# [43] = molecular target: 5-hydroxytryptamine receptor 1D (Homo sapiens, UniProt P28221); test: Binding affinity to 5-HT1DR (unknown origin) assessed as inhibition constant
# 5-hydroxytryptamine receptor 1D, sequence (P28221 whole entry): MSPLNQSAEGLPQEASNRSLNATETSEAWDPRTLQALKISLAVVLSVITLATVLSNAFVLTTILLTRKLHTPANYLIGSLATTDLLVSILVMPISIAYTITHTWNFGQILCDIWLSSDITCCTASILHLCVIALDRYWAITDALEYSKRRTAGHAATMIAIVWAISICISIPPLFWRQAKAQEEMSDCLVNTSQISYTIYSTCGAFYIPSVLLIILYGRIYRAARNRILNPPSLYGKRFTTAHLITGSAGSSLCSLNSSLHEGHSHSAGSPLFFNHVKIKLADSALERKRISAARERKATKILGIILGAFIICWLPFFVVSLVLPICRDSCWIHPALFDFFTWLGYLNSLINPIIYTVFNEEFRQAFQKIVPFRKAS
# 5-hydroxytryptamine receptor 1B, sequence (P28222 whole entry): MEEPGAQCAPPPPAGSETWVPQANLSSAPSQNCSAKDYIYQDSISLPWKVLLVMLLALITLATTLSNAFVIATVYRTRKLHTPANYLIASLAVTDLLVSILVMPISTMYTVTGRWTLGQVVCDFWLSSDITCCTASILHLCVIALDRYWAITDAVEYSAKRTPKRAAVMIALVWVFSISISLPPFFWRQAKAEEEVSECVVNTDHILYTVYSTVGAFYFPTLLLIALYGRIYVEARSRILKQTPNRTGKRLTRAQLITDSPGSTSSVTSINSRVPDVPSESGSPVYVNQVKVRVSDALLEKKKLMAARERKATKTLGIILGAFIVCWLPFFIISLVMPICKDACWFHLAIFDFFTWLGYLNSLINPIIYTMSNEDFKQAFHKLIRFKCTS
smiles,measurement,setting,value
CNS(=O)(=O)CCc1ccc2[nH]cc(C3CCN(C)CC3)c2c1,Ki,[1],1.5 nM
COc1ccc2[nH]c3c(c2c1)CCN[C@]31CS[C@@H]2c3c(OC(C)=O)c(C)c4c(c3[C@@H](COC1=O)N1[C@@H]2[C@H]2c3c(cc(C)c(OC)c3O)C[C@@H]([C@@H]1O)N2C)OCO4,clearance,[2],183 mL/min
same,Cmax,[3],107000 ng/mL
same,half-life,[4],51 h
CN1CC(=O)N2[C@H](c3ccc4c(c3)OCO4)c3[nH]c4ccccc4c3C[C@@H]2C1=O,CL/F,[5],41.7 mL/min
same,half-life,[6],17.5 h
same,Ki,[7],1.2 nM
COc1ccc2c(c1)c(CC(=O)OCC(=O)O)c(C)n2C(=O)c1ccc(Cl)cc1 [ACEMETACIN],IC50,[8],10 nM
same,IC50,[9],10 nM
same,half-life,[10],4.5 h
CCc1cc2c(cc1N1CCC(N3CCOCC3)CC1)C(C)(C)c1[nH]c3cc(C#N)ccc3c1C2=O [ALECTINIB],CL/F,[11],1370 mL/min
same,Vd,[12],4020 L
Cc1[nH]cnc1CN1CCc2c(c3ccccc3n2C)C1=O [ALOSETRON],clearance,[13],600 mL/min
same,half-life,[14],1.5 h
same,Vd,[15],65 L
same,Ki,[16],0.5 nM
same,bioavailability,[17],50%
Cc1c(-c2ccc(O)cc2)n(Cc2ccc(OCCN3CCCCCC3)cc2)c2ccc(O)cc12 [BAZEDOXIFENE],AUC,[18],71 ng·h/mL
same,Tmax,[19],2.5 h
same,Vd,[12],14.7 L/kg
CC(C)C[C@H]1C(=O)N2CCC[C@H]2[C@]2(O)O[C@](NC(=O)[C@@H]3C=C4c5cccc6[nH]c(Br)c(c56)C[C@H]4N(C)C3)(C(C)C)C(=O)N12 [BROMOCRIPTINE],AUC,[20],2.38 ng·h/mL
same,half-life,[21],4.85 h
same,bioavailability,[22],90%
C=CCN1C[C@H](C(=O)N(CCCN(C)C)C(=O)NCC)C[C@@H]2c3cccc4[nH]cc(c34)C[C@H]21 [CABERGOLINE],Ki,D(1A) dopamine receptor,1.4 nM
same,CL renal,[23],80 mL/min
same,EC50,Dopamine receptor,13 nM
CC(C(=O)O)c1ccc2c(c1)[nH]c1ccc(Cl)cc12 (stereo unspecified) [CARPROFEN],half-life,[24],8 h
same,Tmax,[25],1 h
COc1ccccc1OCCNCC(O)COc1cccc2[nH]c3ccccc3c12 (stereo unspecified) [CARVEDILOL],half-life,Half life in human,7 h
CC(C)[C@@]1(NC(=O)[C@@H]2C[C@@H]3c4cccc5[nH]cc(c45)C[C@H]3N(C)C2)O[C@@]2(O)[C@@H]3CCCN3C(=O)[C@H](Cc3ccccc3)N2C1=O [DIHYDROERGOCRISTINE],half-life,Half life in human,3.5 h
same,Ki,[26],2.4 nM
CN1C[C@H](C(=O)N[C@]2(C)O[C@@]3(O)[C@@H]4CCCN4C(=O)[C@H](Cc4ccccc4)N3C2=O)C[C@@H]2c3cccc4[nH]cc(c34)C[C@H]21 [DIHYDROERGOTAMINE],Ki,[27],3.7 nM
same,half-life,[28],9 h
O=C(O[C@@H]1C[C@@H]2C[C@H]3C[C@H](C1)N2CC3=O)c1c[nH]c2ccccc12 [DOLASETRON],Vd,[29],5.8 L/kg
CC(C)n1c(/C=C/C(O)CC(O)CC(=O)O)c(-c2ccc(F)cc2)c2ccccc21 (stereo unspecified) [FLUVASTATIN],Vd,[29],0.35 L/kg
COc1ccc2c(c1)c(CC(=O)O)c(C)n2C(=O)c1ccc(Cl)cc1 [INDOMETHACIN],half-life,[30],7 h
CCN(CC)C(=O)N[C@H]1C=C2c3cccc4[nH]cc(c34)C[C@H]2N(C)C1 [LISURIDE],half-life,[21],1.8 h
same,Vd,[31],1.73 L/kg
COc1ccc2[nH]cc(CCNC(C)=O)c2c1 [MELATONIN],half-life,[14],1 h
same,Ki,[7],0.05 nM
CC[C@@H](CO)NC(=O)[C@@H]1C=C2c3cccc4[nH]cc(c34)C[C@H]2N(C)C1 [METHYLERGONOVINE],half-life,Half life in human,2.5 h
same,Vd,[32],2.4 L/kg
same,bioavailability,[17],40%
CO[C@@H]1[C@H](N(C)C(=O)c2ccccc2)C[C@H]2O[C@]1(C)n1c3ccccc3c3c4c(c5c6ccccc6n2c5c31)C(=O)NC4 [MIDOSTAURIN],half-life,[33],21 h
same,Vd,[29],95.2 L
Cc1nccn1CC1CCc2c(c3ccccc3n2C)C1=O (stereo unspecified) [ONDANSETRON],Ki,[27],2.5 nM
same,half-life,[14],3.1 h
same,bioavailability,[17],56%
Cc1[nH]c2ccccc2c1CCNCc1ccc(/C=C/C(=O)NO)cc1 [PANOBINOSTAT],half-life,[33],37 h
same,CL/F,[11],2670 mL/min
CCCN1C[C@H](CSC)C[C@@H]2c3cccc4[nH]cc(c34)C[C@H]21 [PERGOLIDE],bioavailability,[22],55%
CC(C)NCC(O)COc1cccc2[nH]ccc12 (stereo unspecified) [PINDOLOL],half-life,Half life in human,3 h
same,Vd,[32],2 L/kg
same,Tmax,[25],1 h
O=C1NCCN1CCN1CCC(c2cn(-c3ccc(F)cc3)c3ccc(Cl)cc23)CC1 [SERTINDOLE],half-life,Half life in human,53 h
same,Vd,[32],20 L/kg
same,bioavailability,[17],75%
CCCCCNC(=N)N/N=C/c1c[nH]c2ccc(OC)cc12 [TEGASEROD],clearance,[13],1280 mL/min
same,half-life,[6],11 h
same,Vd,[15],368 L
CC(C)(CO)c1cc2cc(NC(=O)C3(c4ccc5c(c4)OC(F)(F)O5)CC3)c(F)cc2n1C[C@@H](O)CO [TEZACAFTOR],Vd/F,[34],82 L
same,half-life,[35],25.1 h
CN1[C@@H]2CC[C@H]1C[C@@H](OC(=O)c1c[nH]c3ccccc13)C2 [TROPISETRON],half-life,[33],5 h
same,bioavailability,[17],60%
CCOC(=O)c1c(CSc2ccccc2)n(C)c2cc(Br)c(O)c(CN(C)C)c12 [UMIFENOVIR],Tmax,[19],0.65 h
same,half-life,[33],17 h
same,Cmax,[36],415 ng/mL
N#Cc1ccc2[nH]cc(CCCCN3CCN(c4ccc5oc(C(N)=O)cc5c4)CC3)c2c1 [VILAZODONE],AUC,[37],1640 ng·h/mL
same,Cmax,[3],156 ng/mL
same,half-life,[4],25 h
CC[C@]1(O)C[C@@H]2CN(CCc3c([nH]c4ccccc34)[C@@](C(=O)OC)(c3cc4c(cc3OC)N(C)[C@H]3[C@@](O)(C(=O)OC)[C@H](OC(C)=O)[C@]5(CC)C=CCN6CC[C@]43[C@@H]65)C2)C1 [VINBLASTINE],half-life,[28],1.6 h
CC[C@]12C=CCN3CC[C@@]4(c5cc([C@@]6(C(=O)OC)C[C@@H]7C[C@@H](C(C)(F)F)CN(Cc8c6[nH]c6ccccc86)C7)c(OC)cc5N(C)[C@H]4[C@@](O)(C(=O)OC)[C@@H]1OC(C)=O)[C@@H]32 [VINFLUNINE],clearance,[38],667 mL/min
CCC1=C[C@@H]2CN(C1)Cc1c([nH]c3ccccc13)[C@@](C(=O)OC)(c1cc3c(cc1OC)N(C)[C@H]1[C@@](O)(C(=O)OC)[C@H](OC(C)=O)[C@]4(CC)C=CCN5CC[C@]31[C@@H]54)C2 [VINORELBINE],half-life,[28],24.8 h
same,Vd,[39],25.4 L/kg
same,clearance,[40],16.2 mL/min/kg
same,half-life,[6],27.7 h
COC(=O)[C@@H]1[C@H]2C[C@H]3c4[nH]c5ccccc5c4CCN3C[C@@H]2CC[C@@H]1O [YOHIMBINE],half-life,[41],3.7 min
same,half-life,[14],< 1 h
COc1cc(C(=O)NS(=O)(=O)c2ccccc2C)ccc1Cc1cn(C)c2ccc(NC(=O)OC3CCCC3)cc12 [ZAFIRLUKAST],CL/F,[42],333 mL/min
CN(C)CCc1c[nH]c2ccc(C[C@H]3COC(=O)N3)cc12 [ZOLMITRIPTAN],Ki,[1],0.4 nM
same,Ki,[43],0.4 nM
